Target: T1, TRIB2 (Homo sapiens, UniProt Q92519)
T1 sequence (Q92519 1-343): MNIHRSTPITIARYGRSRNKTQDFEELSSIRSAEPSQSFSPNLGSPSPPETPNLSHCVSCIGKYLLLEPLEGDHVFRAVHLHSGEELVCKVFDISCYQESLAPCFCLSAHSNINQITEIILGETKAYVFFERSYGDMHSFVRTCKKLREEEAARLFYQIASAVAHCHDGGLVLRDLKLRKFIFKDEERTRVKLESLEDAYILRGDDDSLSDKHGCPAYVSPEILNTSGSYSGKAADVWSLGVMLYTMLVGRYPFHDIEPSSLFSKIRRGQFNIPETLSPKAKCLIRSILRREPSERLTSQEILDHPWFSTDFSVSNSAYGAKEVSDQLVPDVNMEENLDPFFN
Experiment: radiometric […]-ATP kinase assay with recombinant human TRIB2; supported by CETSA in PC3 cells
Type: biochemical

SMILES | IC50 [µM]
O=C(Nc1ccc2c(c1)CNCC2)c1n[nH]c2ccc(-c3cccnc3F)cc12 [compound 1, 5-(2-fluoropyridin-3-yl)-N-(1,2,3,4-tetrahydroisoquinolin-7-yl)-1H-indazole-3-carboxamide] | 0.00074
O=C1CCC(N2C(=O)c3ccc(NCCCCCCCCCC(=O)N4CCc5ccc(NC(=O)c6n[nH]c7ccc(-c8cccnc8F)cc67)cc5C4)cc3C2=O)C(=O)N1 (centres unmarked) [5k, N-(2-(10-((2-(2,6-dioxopiperidin-3-yl)-1,3-dioxoisoindolin-5-yl)amino)-decanoyl)-1,2,3,4-tetrahydroisoquinolin-7-yl)-5-(2-fluoropyridin-3-yl)-1H-indazole-3-carboxamide] | 0.0652
